Key:
CAL-85-1 [1] = test: drug sensitivity score (DSS), CellTiter-Glo (DSS (AUC-based score)); higher = stronger drug effect (viability inhibition or cytotoxicity); extreme values may be limits of the assay; conditions: incubation time: 72 h
Summary of the method: (§1)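 In 384-well plates, compound was laid out at 5 concentrations in 10-fold steps over a 10,000-fold range specific to each compound, and breast cancer cell lines were seeded on top in 20 µl suspension for a 72 h incubation. CellTox Green fluorescence and then CellTiter-Glo luminescence were read, and each plate was normalised to 0.1 % DMSO and a positive kill control. The drug sensitivity score was calculated from the area under the fitted dose-response curve.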

CAL-120 = test: as above; conditions: incubation time: 72 h
Summary of the method: as §1

HCC1937 [2] = test: as above; conditions: incubation time: 72 h
Summary of the method: as §1

MDA-MB-468 = test: as above; conditions: incubation time: 72 h
Summary of the method: as §1

MCF-10A = test: as above; conditions: incubation time: 72 h
Summary of the method: as §1

HDQ-P1 [3] = test: as above; conditions: incubation time: 72 h
Summary of the method: as §1

DU-4475 [4] = test: as above; conditions: incubation time: 72 h
Summary of the method: as §1

Hs578T = test: as above; conditions: incubation time: 72 h
Summary of the method: as §1

SK-BR-3 = test: as above; conditions: incubation time: 72 h
Summary of the method: as §1

CAL-148 [5] = test: as above; conditions: incubation time: 72 h
Summary of the method: as §1

MDA-MB-436 = test: as above; conditions: incubation time: 72 h
Summary of the method: as §1

HCC1599 = test: as above; conditions: incubation time: 72 h
Summary of the method: as §1

MDA-MB-453 [6] = test: as above; conditions: incubation time: 72 h
Summary of the method: as §1

HCC1143 = test: as above; conditions: incubation time: 72 h
Summary of the method: as §1

BT-549 = test: as above; conditions: incubation time: 72 h
Summary of the method: as §1

CAL-51 [7] = test: as above; conditions: incubation time: 72 h
Summary of the method: as §1

MDA-MB-231 = test: as above; conditions: incubation time: 72 h
Summary of the method: as §1

BT-474 = test: as above; conditions: incubation time: 72 h
Summary of the method: as §1

MFM-223 = test: as above; conditions: incubation time: 72 h
Summary of the method: as §1

HCC1937 [8] = test: normalised viability (% of control), CellTiter-Blue; higher = more viable cells (about 100 = DMSO control); conditions: incubation time: 72 h
Summary of the method: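 Normalised viability is given for a single listed concentration of the series. In 384-well plates, breast cancer cell lines were incubated 72 h with compound, then read with CellTiter-Blue (2 h, 37 °C) at 560/590 nm. Per-plate scaling set vehicle to 100 and a positive kill control to 0, with Z'-factor quality control.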

CAL-85-1 [9] = test: normalised viability (% of control), CellTiter-Blue; higher = more viable cells (about 100 = DMSO control); conditions: 1000 nM; incubation time: 72 h
Method: (§2)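 DSRT, CellTiter-Blue viability, 72 h incubation. Signal is normalised to DMSO and benzethonium chloride controls. Value is the normalised response at dose 7.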

HDQ-P1 [10] = test: as above; conditions: 1000 nM; incubation time: 72 h
Method: as §2

DU-4475 [11] = test: as above; conditions: 1000 nM; incubation time: 72 h
Method: as §2

CAL-148 [12] = test: as above; conditions: 1000 nM; incubation time: 72 h
Method: as §2

MDA-MB-453 [13] = test: as above; conditions: 1000 nM; incubation time: 72 h
Method: as §2

CAL-51 [14] = test: as above; conditions: 1000 nM; incubation time: 72 h
Method: as §2

Compound | drug sensitivity score (CAL-85-1 [1]) | drug sensitivity score (CAL-120) | drug sensitivity score (HCC1937 [2]) | drug sensitivity score (MDA-MB-468) | drug sensitivity score (MCF-10A) | drug sensitivity score (HDQ-P1 [3]) | drug sensitivity score (DU-4475 [4]) | drug sensitivity score (Hs578T) | drug sensitivity score (SK-BR-3) | drug sensitivity score (CAL-148 [5]) | drug sensitivity score (MDA-MB-436) | drug sensitivity score (HCC1599) | drug sensitivity score (MDA-MB-453 [6]) | drug sensitivity score (HCC1143) | drug sensitivity score (BT-549) | drug sensitivity score (CAL-51 [7]) | drug sensitivity score (MDA-MB-231) | drug sensitivity score (BT-474) | drug sensitivity score (MFM-223) | normalised viability (HCC1937 [8]; 10 nM) | normalised viability (HCC1937 [8]; 1000 nM) | normalised viability (HCC1937 [8]; 10000 nM) | normalised viability (CAL-85-1 [9]) | normalised viability (HDQ-P1 [10]) | normalised viability (DU-4475 [11]) | normalised viability (CAL-148 [12]) | normalised viability (MDA-MB-453 [13]) | normalised viability (CAL-51 [14])
CC[C@H](Nc1ncnc2[nH]cnc12)c1nc2cccc(F)c2c(=O)n1-c1ccccc1 [GS-1101] | 0 | 1.34 | 0 | 2.6 | 0 | 1.93 | 0 | 0 | 0 | 0 | 3.18 | 0 | 0 | 0 | 2.49 | 0 | 1.82 | 2.65 | 0 |  |  |  |  |  |  |  |  | 
C=CC(=O)N1CCC[C@@H](n2nc(-c3ccc(Oc4ccccc4)cc3)c3c(N)ncnc32)C1 [Ibrutinib] | 2.66 | 0 | 0 | 0.811 | 4.67 | 3.29 | 0 | 0 | 17.4 | 0 | 0 | 0 | 5.93 | 0 | 0 | 2.76 | 0 | 0 | 0 |  |  |  |  |  |  |  |  | 
C=CCc1cccc(/C=N/NC(=O)CN2CCN(Cc3ccccc3)CC2)c1O [PAC-1] | 3 | 3.26 | 3.44 | 3.77 | 0 | 1.79 | 4.02 | 0 | 3.2 | 2.16 | 5.19 | 1.71 | 5.01 | 1.38 | 7.1 | 8.79 | 2.27 | 2.94 | 1.4 |  |  |  |  |  |  |  |  | 
CC[C@H](C)C(=O)O[C@H]1C[C@H](O)C=C2C=C[C@H](C)[C@H](CC[C@@H](O)C[C@@H](O)CC(=O)O)[C@H]21 [Pravastatin] | 1.96 | 2.92 | 3.68 | 3.34 | 0 | 1.68 | 4.02 | 0 | 4.87 | 3.75 | 26.2 | 6.85 | 0 | 2.94 | 2.77 | 14.4 | 0 | 3.69 | 2.84 |  |  |  |  |  |  |  |  | 
Cc1cnc(NC(=O)Nc2cc(Br)c(C)cc2OC[C@@H]2CNCCO2)cn1 [Rabusertib] | 0.115 | 0 | 0 | 0 | 0 | 0 | 0 | 1.2 | 1.38 | 0 | 0 | 1.93 | 2.1 | 0 | 0 | 0 | 0 | 0 | 0 |  |  |  |  |  |  |  |  | 
CNC(=O)c1cc(Oc2ccc(NC(=O)Nc3cc(C(C)(C)C)nn3-c3ccc4ncccc4c3)c(F)c2)ccn1 [Rebastinib] | 0 | 2.56 | 0 | 0 | 0 | 0 | 0 | 0 | 0 | 0 | 0 | 0 | 0 | 0 | 0 | 0 | 0 | 0.877 | 6.56 |  |  |  |  |  |  |  |  | 
CC(=O)Nc1cccc(-n2c(=O)n(C3CC3)c(=O)c3c(Nc4ccc(I)cc4F)n(C)c(=O)c(C)c32)c1 [Trametinib] | 6.58 | 5.16 | 3.49 | 1.05 | 20.3 | 10.8 | 27.2 | 2.9 | 0 | 0 | 0.966 | 0 | 0 | 0 | 0 | 0 | 5.25 | 5.25 | 1.88 |  |  |  |  |  |  |  |  | 
C1CN1c1nc(N2CC2)nc(N2CC2)n1 [Triethylenemelamine] |  |  |  |  |  |  |  |  |  |  |  |  |  |  |  |  |  |  |  | 86.2% | 72% | 75.3% | 98.4% | 102% | 102% | 110% | 94.4% | 104%
COc1cc2c(NC3CCN(C(C)C)CC3)nc(C3CCCCC3)nc2cc1OCCCN1CCCC1 [UNC0638] | 5.07 | 6.05 | 5.15 | 8.02 | 7.1 | 3.3 | 0.314 | 0 | 6.09 | 5.21 | 6.5 | 2.99 | 7.02 | 3.85 | 6.76 | 7.71 | 6.74 | 6.49 | 6.13 |  |  |  |  |  |  |  |  | 
